Consider 15 molecules from ChEMBL document CHEMBL1132848, “1H-pyrazole-1-carboxamidines: new inhibitors of nitric oxide synthase” (Bioorg Med Chem Lett, 2000).

For experiment [1], the target named is T1, Nitric oxide synthase 1 (Rattus norvegicus, UniProt P29476). The experiment is described as follows: Inhibition against neuronal Nitric Oxide Synthase(nNOS).
Experiment [2] in a line: Selectivity for neuronal(nNOS) and induced Nitric Oxide Synthase(iNOS). Details: reference not given here.
The next experiment concerns the target T2, Nitric oxide synthase 3 (Bos taurus, UniProt P29473).
T2 sequence (P29473 whole entry): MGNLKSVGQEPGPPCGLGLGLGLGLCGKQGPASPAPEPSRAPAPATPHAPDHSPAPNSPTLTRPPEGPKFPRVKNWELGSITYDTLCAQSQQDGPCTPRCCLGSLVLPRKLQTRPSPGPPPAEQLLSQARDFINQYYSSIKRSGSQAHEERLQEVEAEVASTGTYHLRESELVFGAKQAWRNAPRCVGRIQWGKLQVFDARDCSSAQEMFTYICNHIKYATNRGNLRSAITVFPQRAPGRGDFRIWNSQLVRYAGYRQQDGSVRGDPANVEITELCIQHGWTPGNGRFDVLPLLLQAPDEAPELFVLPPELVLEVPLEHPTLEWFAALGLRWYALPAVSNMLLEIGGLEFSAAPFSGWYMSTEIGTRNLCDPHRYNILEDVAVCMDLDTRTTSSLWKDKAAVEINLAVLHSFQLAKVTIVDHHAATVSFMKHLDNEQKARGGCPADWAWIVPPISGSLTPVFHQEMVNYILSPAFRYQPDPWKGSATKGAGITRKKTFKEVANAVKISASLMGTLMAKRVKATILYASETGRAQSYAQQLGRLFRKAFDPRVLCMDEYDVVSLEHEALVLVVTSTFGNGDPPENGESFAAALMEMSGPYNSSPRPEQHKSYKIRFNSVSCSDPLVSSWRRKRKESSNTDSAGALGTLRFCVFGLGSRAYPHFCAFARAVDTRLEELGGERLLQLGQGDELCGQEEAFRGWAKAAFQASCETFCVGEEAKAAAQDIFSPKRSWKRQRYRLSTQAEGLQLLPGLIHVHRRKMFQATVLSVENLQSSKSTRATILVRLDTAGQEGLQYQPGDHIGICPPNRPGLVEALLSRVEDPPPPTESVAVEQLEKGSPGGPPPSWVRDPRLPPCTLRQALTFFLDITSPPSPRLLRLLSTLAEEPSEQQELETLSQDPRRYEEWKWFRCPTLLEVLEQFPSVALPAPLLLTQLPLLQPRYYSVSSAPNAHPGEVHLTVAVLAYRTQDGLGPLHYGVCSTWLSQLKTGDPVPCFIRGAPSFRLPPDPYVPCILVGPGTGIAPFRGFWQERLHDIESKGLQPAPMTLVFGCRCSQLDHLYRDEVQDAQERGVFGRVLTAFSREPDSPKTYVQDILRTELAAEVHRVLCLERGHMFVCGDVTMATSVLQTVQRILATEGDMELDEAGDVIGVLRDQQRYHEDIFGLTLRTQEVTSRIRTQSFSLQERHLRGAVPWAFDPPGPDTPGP
In words: Inhibition against endothelial Nitric Oxide Synthase(eNOS).

Experiment [3] has as its target T3, Nitric oxide synthase, inducible (Mus musculus, UniProt P29477).
T3 sequence (P29477 whole entry): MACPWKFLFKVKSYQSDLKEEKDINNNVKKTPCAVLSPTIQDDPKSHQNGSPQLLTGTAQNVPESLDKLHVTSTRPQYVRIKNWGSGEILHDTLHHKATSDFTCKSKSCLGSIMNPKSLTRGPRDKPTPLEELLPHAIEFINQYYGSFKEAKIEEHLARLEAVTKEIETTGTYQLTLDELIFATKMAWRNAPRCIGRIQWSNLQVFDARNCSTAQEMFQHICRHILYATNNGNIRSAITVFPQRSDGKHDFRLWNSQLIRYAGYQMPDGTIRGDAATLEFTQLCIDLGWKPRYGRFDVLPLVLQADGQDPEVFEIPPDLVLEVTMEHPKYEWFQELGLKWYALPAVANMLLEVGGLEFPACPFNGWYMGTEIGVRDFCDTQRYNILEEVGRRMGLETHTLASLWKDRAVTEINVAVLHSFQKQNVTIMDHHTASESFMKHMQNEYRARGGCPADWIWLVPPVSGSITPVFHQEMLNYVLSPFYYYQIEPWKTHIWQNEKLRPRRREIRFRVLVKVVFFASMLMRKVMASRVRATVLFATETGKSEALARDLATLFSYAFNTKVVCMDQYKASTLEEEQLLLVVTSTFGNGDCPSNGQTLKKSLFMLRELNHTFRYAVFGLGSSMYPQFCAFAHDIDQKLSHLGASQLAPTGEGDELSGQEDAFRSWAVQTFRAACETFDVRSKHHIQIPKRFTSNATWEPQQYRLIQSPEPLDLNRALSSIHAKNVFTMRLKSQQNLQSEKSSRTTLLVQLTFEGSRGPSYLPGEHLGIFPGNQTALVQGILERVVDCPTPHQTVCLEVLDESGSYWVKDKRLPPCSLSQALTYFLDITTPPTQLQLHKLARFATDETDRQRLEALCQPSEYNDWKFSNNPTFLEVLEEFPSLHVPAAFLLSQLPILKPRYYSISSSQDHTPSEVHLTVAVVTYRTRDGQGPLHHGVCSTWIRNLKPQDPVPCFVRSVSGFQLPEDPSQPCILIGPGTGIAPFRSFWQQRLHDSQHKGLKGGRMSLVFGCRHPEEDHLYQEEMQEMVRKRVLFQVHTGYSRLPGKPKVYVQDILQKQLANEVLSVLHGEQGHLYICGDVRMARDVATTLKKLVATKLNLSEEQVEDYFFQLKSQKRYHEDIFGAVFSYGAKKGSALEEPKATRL
The experiment is described as follows: Inhibition against induced Nitric Oxide Synthase(iNOS).

Experiment [4] in a line: Selectivity for neuronal (nNOS) and endothelial Nitric Oxide Synthase(eNOS). Details: reference not given here.
Experiment [5] has as its target T1, Nitric oxide synthase 1. The experiment is described as follows: (§1) Time dependent inhibition against neuronal Nitric Oxide Synthase(nNOS).
For experiment [6], the target named is Nitric oxide synthase 1 (Rattus norvegicus) (UniProt P29476). The description is as §1.
Chain of Nitric oxide synthase 1 (Rattus norvegicus) (P29476 whole entry): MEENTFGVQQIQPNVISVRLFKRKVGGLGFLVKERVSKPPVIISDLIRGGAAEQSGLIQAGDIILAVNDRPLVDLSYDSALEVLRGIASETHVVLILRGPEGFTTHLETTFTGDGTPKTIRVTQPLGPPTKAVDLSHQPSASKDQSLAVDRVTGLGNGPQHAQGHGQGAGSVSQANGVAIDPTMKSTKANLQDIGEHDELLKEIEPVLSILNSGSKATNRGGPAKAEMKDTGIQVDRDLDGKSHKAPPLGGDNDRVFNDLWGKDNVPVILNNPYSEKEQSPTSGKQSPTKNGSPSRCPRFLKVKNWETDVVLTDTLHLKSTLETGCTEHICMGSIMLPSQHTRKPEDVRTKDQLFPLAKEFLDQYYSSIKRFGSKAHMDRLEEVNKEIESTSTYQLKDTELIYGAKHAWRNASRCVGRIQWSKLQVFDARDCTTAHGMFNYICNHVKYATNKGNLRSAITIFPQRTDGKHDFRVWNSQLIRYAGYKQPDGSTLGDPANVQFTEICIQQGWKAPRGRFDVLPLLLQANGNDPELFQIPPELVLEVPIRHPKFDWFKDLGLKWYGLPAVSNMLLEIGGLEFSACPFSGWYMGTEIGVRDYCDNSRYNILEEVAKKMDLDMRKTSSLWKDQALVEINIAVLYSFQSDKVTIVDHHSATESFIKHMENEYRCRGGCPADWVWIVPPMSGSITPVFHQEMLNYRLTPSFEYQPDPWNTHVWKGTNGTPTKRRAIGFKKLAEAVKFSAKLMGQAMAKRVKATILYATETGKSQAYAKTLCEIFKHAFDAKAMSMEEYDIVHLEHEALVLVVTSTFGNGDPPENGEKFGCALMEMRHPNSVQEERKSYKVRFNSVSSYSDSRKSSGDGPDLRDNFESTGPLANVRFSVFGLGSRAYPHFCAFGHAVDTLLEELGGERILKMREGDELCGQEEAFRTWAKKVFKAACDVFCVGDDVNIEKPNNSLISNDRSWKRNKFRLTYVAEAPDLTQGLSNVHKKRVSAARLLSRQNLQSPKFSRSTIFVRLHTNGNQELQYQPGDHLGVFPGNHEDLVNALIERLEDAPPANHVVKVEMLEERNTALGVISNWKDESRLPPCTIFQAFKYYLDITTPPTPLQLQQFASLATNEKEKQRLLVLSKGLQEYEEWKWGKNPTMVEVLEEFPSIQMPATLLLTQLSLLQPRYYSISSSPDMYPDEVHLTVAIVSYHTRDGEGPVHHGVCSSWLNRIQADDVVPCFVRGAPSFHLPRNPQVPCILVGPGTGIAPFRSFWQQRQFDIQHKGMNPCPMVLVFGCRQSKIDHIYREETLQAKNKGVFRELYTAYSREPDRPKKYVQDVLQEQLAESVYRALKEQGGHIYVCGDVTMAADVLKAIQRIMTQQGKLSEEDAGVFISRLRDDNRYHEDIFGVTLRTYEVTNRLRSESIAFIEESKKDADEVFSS

Structures are written as SMILES.

T1 sequence (P29476 whole entry): as above

For `NCCCC/N=C(\N)n1cccn1`, the Ki on Nitric oxide synthase 1 [1] is 6 µM; at Nitric oxide synthase 3, 460 µM; in experiment [3], 50 µM. Besides, the Ratio in experiment [2] stood at 8.3; in experiment [4] it was 77.

On to `CCCC/N=C(\N)NCCC`, for which the Ki was 700 µM on Nitric oxide synthase 1 [1], 650 µM at Nitric oxide synthase 3 and 780 µM in experiment [3]. In addition, the Ratio was determined as 1.1 in experiment [2] and 0.9 in experiment [4].

As for `CCCCC/N=C(\N)n1cccn1`, the Ki at Nitric oxide synthase 1 [1] was 60 µM; at Nitric oxide synthase 3, 700 µM; in experiment [3] it was 50 µM. For the same molecule, the figures for the Ratio in experiment [2] and in experiment [4] were 0.8 and 14, respectively.

In experiment [3], `N=C(Nc1cccc(CN)c1)c1ccco1` had a Ki of 0.16 µM.

On to `N=C(NC1CC1)n1cccn1`, for which the Ki is 50 µM at Nitric oxide synthase 1 [1], 120 µM at Nitric oxide synthase 3 and 80 µM in experiment [3]. Besides, the Ratio in experiment [2] came out at 1.6; in experiment [4], 2.4.

For `N=C(N)n1cccn1`, the Ki came to 0.4 µM at Nitric oxide synthase 1 [1], 0.5 µM at Nitric oxide synthase 3 and 0.7 µM in experiment [3]. The Ratio is 1.8 in experiment [2] and 1.3 in experiment [4].

Turning to `Cc1cnn(C(=N)N)c1`, the results for the Ki (on Nitric oxide synthase 1 [1]; on Nitric oxide synthase 3; in experiment [3]) were 12 µM, 190 µM and 3 µM, respectively. The Ratio in experiment [2] is 0.3; in experiment [4] it was 16.

On to `Cc1cc(C)n(C(=N)N)n1`, for which the Ki on Nitric oxide synthase 1 [1] was 350 µM; at Nitric oxide synthase 3 it was 1500 µM; in experiment [3], 750 µM. Also, the Ratio in experiment [2] stood at 2.1; in experiment [4], 4.3.

For the molecule `CCCC/N=C(\N)n1cccn1`, the Ki at Nitric oxide synthase 1 [1] came out at 14 µM; on Nitric oxide synthase 3, 25 µM; in experiment [3] it was 14 µM. The Ratio in experiment [2] worked out at 1; in experiment [4], 1.8.

With `CC(C)C/N=C(\N)n1cccn1`, the results for the Ki (at Nitric oxide synthase 1 [1]; on Nitric oxide synthase 3; in experiment [3]) were 45 µM, 180 µM and 150 µM, respectively. Moreover, the results for the Ratio in experiment [2] and in experiment [4] were 3.3 and 4, respectively.

Turning to `N=C(NCC1CC1)n1cccn1`, the results for the Ki (on Nitric oxide synthase 1 [1]; at Nitric oxide synthase 3; in experiment [3]) were 10 µM, 80 µM and 22 µM, respectively. In addition, the Ratio in experiment [2] came out at 2.2; in experiment [4], 8.

As for `N=C(Nc1cccc(CN)c1)c1cccs1`, the Ki came out at 0.46 µM at Nitric oxide synthase 3 and 0.12 µM in experiment [3].

Take `Cc1ccn(C(=N)N)n1`: the Ki on Nitric oxide synthase 1 [1] came to 8 µM; on Nitric oxide synthase 3, 100 µM; in experiment [3] it was 9 µM. The Ratio in experiment [2] worked out at 1.1; in experiment [4], 13.

For `CCC/N=C(\N)n1cccn1`, the Ki at Nitric oxide synthase 1 [5] stood at 33 µM; at Nitric oxide synthase 1 [1], 3 µM; on Nitric oxide synthase 3 it was 9 µM; in experiment [3], 5 µM. The figures for the Ratio in experiment [2] and in experiment [4] were 1.7 and 3, respectively. The molecule also yielded a K inact in experiment [6] of 0.024 min⁻¹.

`N=C(Nc1cccc(CN)c1)n1cccn1`: the Ki on Nitric oxide synthase 1 [1] came out at 2 µM; on Nitric oxide synthase 3 it was 200 µM; in experiment [3] it was 12 µM. For the same molecule, the Ratio amounted to 6 in experiment [2] and 100 in experiment [4].
